Measurements as given in patent US7700593B2, “Imidazo- and triazolo-pyridine compounds and methods of use thereof” (Amgen Inc., priority 2006, dated 2010).
Like-named read-outs stand apart in the source and are kept apart here.

Experiments:
[1] = molecular target: p38α (Homo sapiens, UniProt Q16539); experiment: p38 in-vitro HTRF enzyme assay; format: biochemical; conditions: IC50 value ranges
Summary of the method: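 Activated recombinant human p38α with ATP and 100 nM GST-ATF2-Avitag, 1 h at RT in Tris pH 7.5/MgCl2 buffer; compound 10-point 3-fold series from about 1 μM final. HTRF 665/620 nm ratio; IC50 from 4-parameter fit, Ki via Cheng-Prusoff with experimental ATP Km.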

[2] = system: THP1 cells; experiment: Lipopolysaccharide-activated THP1 cell TNF production assay; format: cell-based, human; conditions: LPS-induced TNF-α production in THP1 cells
Summary of the method: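 THP1 cells at 1E6/mL were stimulated with LPS (1 μg/mL prepared stock) alongside 3-fold serially diluted compound for 3 h at 37 °C. Secreted TNF-α was quantified by electrochemiluminescence sandwich immunoassay. Percent of DMSO control was fitted to a 4-parameter logistic equation.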

[3] = system: monocytes; experiment: Lipopolysaccharide-activated monocyte TNF production assay (LPS induced TNF release); format: cell-based, human; conditions: LPS induced TNF release from monocytes, read-out: LPS induced TNFa
Summary of the method: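 Adherent monocytes from human PBMCs were pretreated with compound 60 min, then stimulated with E. coli LPS (30 ng/mL stock added) for 4 h at 37 °C. Supernatant TNF-α measured by sandwich ELISA; concentration giving 50% TNF reduction derived by polynomial fit.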

Sequence of p38α (Q16539 whole entry): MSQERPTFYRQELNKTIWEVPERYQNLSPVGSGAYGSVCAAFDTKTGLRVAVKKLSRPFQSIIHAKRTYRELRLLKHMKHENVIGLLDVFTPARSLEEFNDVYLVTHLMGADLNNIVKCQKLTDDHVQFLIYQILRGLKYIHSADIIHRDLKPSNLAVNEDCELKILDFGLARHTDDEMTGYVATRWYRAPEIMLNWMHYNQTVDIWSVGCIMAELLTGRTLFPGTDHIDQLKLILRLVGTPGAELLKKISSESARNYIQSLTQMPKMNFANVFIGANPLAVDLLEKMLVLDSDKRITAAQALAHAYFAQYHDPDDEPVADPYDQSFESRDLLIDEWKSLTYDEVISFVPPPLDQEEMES

SMILES	IC50 [1] [nM]	IC50 ([2]; Homo sapiens, THP-1) [nM]	IC50 ([3]; Homo sapiens, Monocyte) [nM]	IC50 ([2]; read-out: THP-1 cell assay) [nM]	IC50 [3] [nM]
Cc1ccc(C(=O)NC2CC2)cc1-c1ccn2c(C(F)(F)F)nnc2c1 [Example 102, N-cyclopropyl-4-methyl-3-(3-(trifluoromethyl)[1,2,4]triazolo[4,3-a]pyridin-7-yl)benzamide]	100 to 250	250 to 1000	250 to 1000	–	–
Cc1ccc(C(=O)NC2CC2)cc1-c1ccn2c(Cc3ccccc3)nnc2c1 [Example 89, N-cyclopropyl-4-methyl-3-(3-(phenylmethyl)[1,2,4]triazolo[4,3-a]pyridin-7-yl)benzamide]	< 25	100 to 250	250 to 1000	–	–
Cc1ccc(C(=O)NC2CC2)cc1-c1ccn2c(Nc3ccccc3)nnc2c1 [Example 66, N-cyclopropyl-4-methyl-3-(3-(phenylamino)[1,2,4]triazolo[4,3-a]pyridin-7-yl)benzamide]	< 25	250 to 1000	100 to 250	–	–
Cc1c(F)cc(C(=O)Nc2ccnn2C)cc1-c1ccn2c(-c3c(F)cccc3Cl)nnc2c1 [Example 61, 3-(3-(2-chloro-6-fluorophenyl)[1,2,4]triazolo[4,3-a]pyridin-7-yl)-5-fluoro-4-methyl-N-(1-methyl-1H-pyrazol-5-yl)benzamide]	25 to 100	25 to 100	100 to 250	–	–
Cc1cc(F)c(C(=O)NC2CC2)cc1-c1ccn2c(-c3ccccc3Cl)nnc2c1 [Example 70, 5-(3-(2-chlorophenyl)[1,2,4]triazolo[4,3-a]pyridin-7-yl)-N-cyclopropyl-2-fluoro-4-methylbenzamide]	< 25	25 to 100	100 to 250	–	–
Cc1c(F)cc(C(=O)NC2CC2)cc1-c1ccn2c(-c3ccncc3Cl)nnc2c1 [Example 79, 3-(3-(3-chloro-4-pyridinyl)[1,2,4]triazolo[4,3-a]pyridin-7-yl)-N-cyclopropyl-5-fluoro-4-methylbenzamide]	< 25	< 25	25 to 100	–	–
Cc1ccc(C(=O)NC2CC2)cc1-c1ccn2c(-c3ocnc3C)nnc2c1 [Example 57, N-cyclopropyl-4-methyl-3-(3-(4-methyl-1,3-oxazol-5-yl)[1,2,4]triazolo[4,3-a]pyridin-7-yl)benzamide]	25 to 100	250 to 1000	250 to 1000	–	–
Cc1cccc(F)c1-c1nnc2cc(-c3cc(C(=O)NC4CC4)cc(F)c3C)ccn12 [Example 83, N-cyclopropyl-3-fluoro-5-(3-(2-fluoro-6-methylphenyl)[1,2,4]triazolo[4,3-a]pyridin-7-yl)-4-methylbenzamide]	< 25	< 25	< 25	–	–
Cc1c(F)cc(C(=O)NC2CC2)cc1-c1ccn2c(-c3ccccc3Cl)nnc2c1 [Example 51, 3-(3-(2-chlorophenyl)[1,2,4]triazolo[4,3-a]pyridin-7-yl)-N-cyclopropyl-5-fluoro-4-methylbenzamide]	< 25	< 25	25 to 100	–	–
Cc1c(F)cc(C(=O)Nc2ccon2)cc1-c1ccn2c(-c3c(F)cccc3F)nnc2c1 [Example 92, 3-(3-(2,6-difluorophenyl)[1,2,4]triazolo[4,3-a]pyridin-7-yl)-5-fluoro-N-3-isoxazolyl-4-methylbenzamide]	< 25	< 25	< 25	–	–
Cc1ccc(C(=O)NC2CC2)cc1-c1ccn2c(C3CCCCC3)nnc2c1 [Example 94, 3-(3-cyclohexyl[1,2,4]triazolo[4,3-a]pyridin-7-yl)-N-cyclopropyl-4-methylbenzamide]	< 25	25 to 100	100 to 250	–	–
Cc1ccc(C(=O)NC2CC2)cc1-c1cc(C)n2c(-c3ccccc3Cl)nnc2c1 [Example 6, 3-(3-(2-chlorophenyl)-5-methyl[1,2,4]triazolo[4,3-a]pyridin-7-yl)-N-cyclopropyl-4-methylbenzamide]	< 25	< 25	25 to 100	–	–
Cc1ccc(C(=O)NC2CC2)cc1-c1ccn2c(C(C)(C)C)nnc2c1 [Example 105, N-cyclopropyl-3-(3-(1,1-dimethylethyl)[1,2,4]triazolo[4,3-a]pyridin-7-yl)-4-methylbenzamide]	< 25	25 to 100	25 to 100	–	–
Cc1ccc(C(=O)Nc2ccon2)cc1-c1ccn2c(-c3c(F)cccc3F)nnc2c1 [Example 106, 3-(3-(2,6-difluorophenyl)[1,2,4]triazolo[4,3-a]pyridin-7-yl)-N-3-isoxazolyl-4-methylbenzamide]	< 25	< 25	< 25	–	–
Cc1ccc(C(=O)NC2CC2)cc1-c1ccn2c(-c3cc(F)ccc3Cl)nnc2c1 [Example 46, 3-(3-(2-chloro-5-fluorophenyl)[1,2,4]triazolo[4,3-a]pyridin-7-yl)-N-cyclopropyl-4-methylbenzamide]	< 25	< 25	25 to 100	–	–
Cc1ccc(C(=O)NC2CC2)cc1-c1ccn2c(C34CC5CC(CC(C5)C3)C4)nnc2c1 [Example 98, N-cyclopropyl-4-methyl-3-(3-((3s,5s,7s)-tricyclo[3.3.1.1~3,7~]dec-1-yl)[1,2,4]triazolo[4,3-a]pyridin-7-yl)benzamide]	< 25	–	–	25 to 100	100 to 250
Cc1ccc(C(=O)Nc2ccnn2C)cc1-c1ccn2c(-c3cnccc3C(F)(F)F)ncc2c1 [Example 4, 4-methyl-N-(1-methyl-1H-pyrazol-5-yl)-3-(3-(4-(trifluoromethyl)-3-pyridinyl)imidazo[1,5-a]pyridin-7-yl)benzamide]	< 25	25 to 100	25 to 100	–	–
Cc1ncoc1-c1nnc2cc(-c3cc(C(=O)NC4CC4)cc(F)c3C)ccn12 [Example 60, N-cyclopropyl-3-fluoro-4-methyl-5-(3-(4-methyl-1,3-oxazol-5-yl)[1,2,4]triazolo[4,3-a]pyridin-7-yl)benzamide]	< 25	100 to 250	100 to 250	–	–
Cc1ccc(C(=O)NC2CC2)cc1-c1ccn2c(C3CCOCC3)nnc2c1 [Example 97, N-cyclopropyl-4-methyl-3-(3-(tetrahydro-2H-pyran-4-yl)[1,2,4]triazolo[4,3-a]pyridin-7-yl)benzamide]	< 25	25 to 100	100 to 250	–	–
Cc1ccc(C(=O)NC2CC2)cc1-c1ccn2c(-c3ccccc3F)nnc2c1 [Example 2, N-cyclopropyl-3-(3-(2-fluorophenyl)[1,2,4]triazolo[4,3-a]pyridin-7-yl)-4-methylbenzamide]	< 25	25 to 100	25 to 100	–	–
Cc1ccc(C(=O)Nc2ccnn2C)cc1-c1ccn2c(-c3cc(F)cc(F)c3)ncc2c1 [Example 8, 3-(3-(3,5-difluorophenyl)imidazo[1,5-a]pyridin-7-yl)-4-methyl-N-(1-methyl-1H-pyrazol-5-yl)benzamide]	< 25	100 to 250	1000 to 5000	–	–
Cc1ccc(C(=O)NC2CC2)cc1-c1ccn2c(N(C)c3ccccc3)nnc2c1 [Example 75, N-cyclopropyl-4-methyl-3-(3-(methyl(phenyl)amino)[1,2,4]triazolo[4,3-a]pyridin-7-yl)benzamide]	< 25	25 to 100	250 to 1000	–	–
Cc1ccc(C(=O)Nc2ccnn2C)cc1-c1ccn2c(-c3ccccc3F)nnc2c1 [Example 30, 3-(3-(2-fluorophenyl)[1,2,4]triazolo[4,3-a]pyridin-7-yl)-4-methyl-N-(1-methyl-1H-pyrazol-5-yl)benzamide]	< 25	25 to 100	25 to 100	–	–
Cc1ccc(C(=O)NC2CC2)cc1-c1ccn2c(-c3ccc(S(C)(=O)=O)cc3)nnc2c1 [Example 12, N-cyclopropyl-4-methyl-3-(3-(4-(methylsulfonyl)phenyl)[1,2,4]triazolo[4,3-a]pyridin-7-yl)benzamide]	25 to 100	1000 to 5000	250 to 1000	–	–
Cc1ccc(C(N)=O)cc1-c1ccn2c(-c3ccccc3Cl)nnc2c1 [Example 44, 3-(3-(2-chlorophenyl)[1,2,4]triazolo[4,3-a]pyridin-7-yl)-4-methylbenzamide]	< 25	25 to 100	100 to 250	–	–
Cc1ccc(C(=O)NC(C)C)cc1-c1ccn2c(-c3ccccc3Cl)nnc2c1 [Example 43, 3-(3-(2-chlorophenyl)[1,2,4]triazolo[4,3-a]pyridin-7-yl)-4-methyl-N-(1-methylethyl)benzamide]	25 to 100	100 to 250	250 to 1000	–	–
Cc1ccc(C(=O)NC2CC2)cc1-c1ccn2c(CC(C)(C)C)nnc2c1 [Example 25, N-cyclopropyl-3-(3-(2,2-dimethylpropyl)[1,2,4]triazolo[4,3-a]pyridin-7-yl)-4-methylbenzamide]	< 25	25 to 100	25 to 100	–	–
CCc1ccccc1-c1nnc2cc(-c3cc(C(=O)NC4CC4)ccc3C)ccn12 [Example 103, N-cyclopropyl-3-(3-(2-ethylphenyl)[1,2,4]triazolo[4,3-a]pyridin-7-yl)-4-methylbenzamide]	< 25	25 to 100	100 to 250	–	–
Cc1cc(Cl)c(C(=O)NC2CC2)cc1-c1ccn2c(-c3ccccc3Cl)nnc2c1 [Example 90, 2-chloro-5-(3-(2-chlorophenyl)[1,2,4]triazolo[4,3-a]pyridin-7-yl)-N-cyclopropyl-4-methylbenzamide]	250 to 1000	1000 to 5000	> 5000	–	–
